This is an account of results in ChEMBL document CHEMBL1165915, “Dual Src and Abl inhibitors target wild type Abl and the AblT315I Imatinib-resistant mutant with different mechanisms” (Bioorg Med Chem, 2010).

SMILES strings stand for the structures.

The species named for assay [1] is Homo sapiens. Put plainly: Selectivity ratio of Ki for human recombinant ABL T315I mutant to Ki for human recombinant ABL using ATP as substrate.
For assay [2], the species on record is Homo sapiens. The experiment in a line: Selectivity ratio of Ki for human recombinant ABL T315I mutant to Ki for human recombinant ABL using abtide peptide as substrate.

With `Cc1ccc(NC(=O)c2ccc(CN3CCN(C)CC3)cc2)cc1Nc1nccc(-c2cccnc2)n1`, the Ratio Ki in assay [1] and in assay [2] was 20 in each case.
Consider `NC(=O)c1cccc(-c2cc(Nc3ccc(OC(F)(F)F)cc3)ncn2)c1`, for which the Ratio Ki in assay [1] and in assay [2] was 40 in each case.
